Experiments:
Type in all cases: physicochemical
[1] = PTR-MS headspace release at various flavor compound to 1,3-propanediol or PG ratios (Example 2); conditions: for Percent Suppression by 1,3-propanediol: (IZ−IPG)/IPG×100; for release suppressed in the presence of 1,3-propanediol: 10% cut-off for significant difference, relative to PG
Procedure, shortened: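 A mixed liquid flavoring was dosed into a beverage at 8 ppm per compound (furfuryl mercaptan 1.6 ppm), with varying amounts of propylene glycol or 1,3-propanediol. Headspace release was measured by PTR-MS. Percent suppression was calculated from peak heights as (IZ−IPG)/IPG×100, relative to PG.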

[2] = PTR-MS real-time headspace release, watermelon flavor model in water (Example 1); parameters: Sample A (PG) Mean / Sample B (1,3-propanediol) Mean: unit not given here; conditions: for Sample B (1,3-propanediol) Mean / Sample A (PG) Mean: PTR-MS headspace, diluted in water, 90 minutes equilibration, mean of three; for Sample B (1,3-propanediol) Mean: watermelon flavor concentrate in 1,3-propanediol; for Sample A (PG) Mean: watermelon flavor concentrate in propylene glycol; for Percent Release Difference: Sample B (1,3-propanediol) relative to Sample A (PG)
Procedure: The impact of 1,3-propanediol on the release of flavor compounds can be analyzed by Proton Transfer Reaction Mass Spectrometry (PTR-MS; model TOF-8000 from Ionicon Analytik Inc.), where real-time headspace release of volatiles is measured. A sampling apparatus is needed in conjunction with the PTR-MS inlet to prevent variations caused by headspace kinetics. By one exemplary approach, the sampling apparatus includes a 4 ounce sample vessel equipped with a 2-hole lid which may be sealed by an adhesive film to allow equilibration. […]. The holes are equal sized (˜2 mm diameter) and match the outer diameter of the PTR-MS inlet line. The flow of the dilution gas into the vessel is regulated by the vacuum and proportional valve of the PTR-MS inlet system. The sample vessel has a base diameter of 47 mm and is 45 mm high, of which 8 mm of height is occupied by the sample in the vessel in these experiments. The 2 holes in the lid are equidistant from the edge of the vessel (˜20 mm) and about 30 mm from each other. The PTR-MS inlet is braced by clamps in a fixed position vertically above the laboratory bench (˜55 mm) and a silicone rubber depth gauge is affixed to the PTR-MS inlet tubing and set at 18 mm. The PTR-MS inlet is thus consistently oriented in a vertical position 18 mm below the inside lid of the vessel and 19 mm above the sample in the vessel. The sample vessel is then held in place during sampling according to the depth gauge on the inlet line and the vessel is subsequently supported on the bench by a 10 mm plastic spacer.
15 grams of the sample to be tested (e.g., food or beverage product containing 1,3-propanediol) are added to the vessel. The vessel is sealed and allowed to equilibrate at room temperature (˜22° C.) for 90 minutes. At the time of sampling, the seal is removed from both the sampling hole and the dilution gas hole in the lid and the vessel is immediately affixed to the PTR-MS inlet via the sampling hole. The real-time released flavor is measured from the headspace of the sample vessel for two minutes (according to the conditions listed in Table 1 below). A comparative sample is prepared that is otherwise identical to the test sample but contains propylene glycol or water instead of 1,3-propanediol. The comparative sample is then analyzed in triplicate by PTR-MS using the above-described procedure. The data can be analyzed using PTR-MS Viewer, Version 3.0.0.101 (Ionicon Analytik G.m.b.H). The point of maximum intensity for each compound of interest can be determined and recorded according to the PTR-MS Viewer software. The maximum intensity in counts over the timescale for each compound of interest can be used for data analysis as it reflects the static equilibrium headspace concentration in the system at the moment of seal removal. Due to the necessity of a dilution gas, the volatile concentration decreases over time as the compounds of interest re-equilibrate to a state of dynamic equilibrium in the headspace.
[…]. Sample A was prepared with 20 grams watermelon flavor concentrate and 80 grams propylene glycol. Sample B was prepared with 20 grams watermelon flavor concentrate and 80 grams 1,3-propanediol. Each of the samples was further diluted by adding 0.08 grams of each diluted concentrate to 99.92 grams water to provide a flavor water solution.
The diluted samples were analyzed by Proton Transfer Reaction Mass Spectrometry (PTR-MS; model TOF-8000 from Ionicon Analytik Inc.) for real-time headspace release volatiles measurement. Samples were analyzed in triplicate. […]. […].

[3] = PTR-MS headspace release with various non-aqueous liquids (diols) at 0.05:100 (Example 3); conditions: ratio 0.05:100; for PTR-MS headspace release in 1,3-butanediol: non-aqueous liquid 1,3-butanediol; for PTR-MS headspace release in 1,3-butanediol / PTR-MS headspace release in 1,3-propanediol / PTR-MS headspace release in 1,4-butanediol / PTR-MS headspace release in 1,7-heptanediol / PTR-MS headspace release in Propylene glycol: diluted in water; for PTR-MS headspace release in 1,3-propanediol: non-aqueous liquid 1,3-propanediol; for PTR-MS headspace release in 1,4-butanediol: non-aqueous liquid 1,4-butanediol; for PTR-MS headspace release in 1,7-heptanediol: non-aqueous liquid 1,7-heptanediol; for PTR-MS headspace release in Propylene glycol: non-aqueous liquid propylene glycol
Procedure, shortened: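 Flavour compounds were diluted in water to a final 8 ppm each, with furfuryl mercaptan at 1.6 ppm, keeping the compound to diol ratio at 0.05:100 across several diols. Headspace was measured by PTR-MS, and % suppression was computed as (I1,3-diol − Ialternate diol)/Ialternate diol × 100.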

[4] = PTR-MS headspace release in neat solvent, solvent/solvent experiment (Example 5); parameters: key to Release Differences: “Z” indicates that 1,3-propanediol had higher equilibrium maximum (meaning more of the flavor was released in 1,3-propanediol); “P” indicates that propylene glycol had higher equilibrium maximum; “-” indicates no statistical difference (95% significance) between the two samples; conditions: 1.5 hrs equilibration; for Release Differences: 1,3-propanediol versus propylene glycol as sole solvent, 95% significance
[5] = ratio 0.005:100, negative = suppressed vs PG

CCCC(=O)OCC [Ethyl butyrate]
Percent Suppression by 1,3-propanediol [1, 5]: 3.2%
Percent Suppression by 1,3-propanediol ([1]; ratio 0.05:100): 14.9%
Percent Suppression by 1,3-propanediol ([1]; ratio 5:100): −21.8%
Percent Suppression by 1,3-propanediol ([1]; ratio 15:100): −3.3%
Sample B (1,3-propanediol) Mean [2]: 5827
Sample A (PG) Mean [2]: 10983
Percent Release Difference [2]: −46.9%
PTR-MS headspace release in 1,3-butanediol [3]: 141.5
PTR-MS headspace release in 1,3-propanediol [3]: 46.20
PTR-MS headspace release in 1,4-butanediol [3]: 239.3
PTR-MS headspace release in 1,7-heptanediol [3]: 223.5
PTR-MS headspace release in Propylene glycol [3]: 40.20
Percent suppression by 1,3-butanediol relative to 1,4-butanediol [3]: −69.10%
Release Differences [4]: Z

CC=O [Acetaldehyde]
release suppressed in the presence of 1,3-propanediol [1]: suppressed
effect of 1,3-propanediol on release ([1]; flavor/1,3-propanediol ratio of 0.005:100, 0.05:100, and 5:100): significant suppression effect
effect of 1,3-propanediol on release ([1]; ratio 0.005:100): still suppressed
Percent Suppression by 1,3-propanediol [1, 5]: −22.1%
Percent Suppression by 1,3-propanediol ([1]; ratio 0.05:100): −37.3%
Percent Suppression by 1,3-propanediol ([1]; ratio 5:100): −57.4%
Percent Suppression by 1,3-propanediol ([1]; ratio 15:100): 64.5%
Sample B (1,3-propanediol) Mean [2]: 877
Sample A (PG) Mean [2]: 803.33
Percent Release Difference [2]: 9.1%
PTR-MS headspace release in 1,3-butanediol [3]: 157.0
PTR-MS headspace release in 1,3-propanediol [3]: 104.00
PTR-MS headspace release in 1,4-butanediol [3]: 196.5
PTR-MS headspace release in 1,7-heptanediol [3]: 206.5
PTR-MS headspace release in Propylene glycol [3]: 165.85
Percent suppression by 1,3-butanediol relative to 1,4-butanediol [3]: −25.2%
Release Differences [4]: Z
release in 1,3-propanediol versus propylene glycol, solvent/solvent [4]: released faster (as evidenced by higher headspace concentration) in 1,3-propanediol

O=Cc1ccccc1 [Benzaldehyde]
release suppressed in the presence of 1,3-propanediol [1]: suppressed
effect of 1,3-propanediol on release ([1]; flavor/1,3-propanediol ratio of 0.05:100 and 5:100): significant suppression effect
Percent Suppression by 1,3-propanediol [1, 5]: −0.5%
Percent Suppression by 1,3-propanediol ([1]; ratio 0.05:100): −90.3%
Percent Suppression by 1,3-propanediol ([1]; ratio 5:100): −40.6%
Percent Suppression by 1,3-propanediol ([1]; ratio 15:100): −16.2%
Sample B (1,3-propanediol) Mean [2]: 32.00
Sample A (PG) Mean [2]: 39.67
Percent Release Difference [2]: −19.3%
PTR-MS headspace release in 1,3-butanediol [3]: 250.0
PTR-MS headspace release in 1,3-propanediol [3]: 13.20
PTR-MS headspace release in 1,4-butanediol [3]: 354.0
PTR-MS headspace release in 1,7-heptanediol [3]: 357.5
PTR-MS headspace release in Propylene glycol [3]: 136.25
Percent suppression by 1,3-butanediol relative to 1,4-butanediol [3]: −41.6%
Release Differences [4]: P

— patent US9883691B2, “Food and beverage products containing 1,3-propanediol and methods of modifying flavor release using 1,3-propanediol” (Kraft Foods Group Brands LLC, priority 2012, dated 2018)
